In patent US20260183396A1, “CXCR3 OVEREXPRESSION IN CAR-NK CELLS PRIMES MIGRATION/HOMING INTO THE TUMOR MICROENVIRONMENT” (DANA-FARBER CANCER INSTITUTE, INC., priority 2022, published 2026):

Experiments:
Format in all cases: cell-based, human
[1] = tested on: H2591 MPM cells; experiment: NK cell migration assay towards H2591 spheroids
Procedure: NK cell infiltration assay. Immune cell infiltration was assessed as previously described (Kitajima et al., Cancer Discov. 9:34-45 (2019); Mahadevan et al., Cancer Discov. 11:1952-1969 (2021)). Briefly, mesothelioma cancer cell spheroids (H2591, H2461, H226) were generated by seeding 5×10^5 cells in suspension in a ULA dish for 24 hours. […] Samples were then pelleted and resuspended in type I rat tail collagen (Corning) at a concentration of 2.5 mg/mL following the addition of 10×PBS with phenol red and pH adjustment using NaOH. pH 7.0-7.5 was confirmed using PANPEHA Whatman paper (Sigma-Aldrich). Cells and collagen were kept on ice to prevent polymerization. […]
For quantification, images were captured on a Nikon Eclipse 80i fluorescence microscope equipped with Z-stack (Prior) and CoolSNAP CCD camera (Roper Scientific). […] Quantification of immune cell infiltration into the 3D tumor microenvironment was performed by measuring the total cell area of cell tracker dye in the entire gel region. For the experiment with the CXCR3 neutralizing antibody (R&D MAB160; FIG. 6B), staining was quantified in a square region in the center of the channel to focus on effects of CXCR3 ligands released by tumor cells. Percent dead cell quantification was performed as in PDOTS as described above. […]

[2] = tested on: STING; experiment: STING pathway activation / CXCL10 ELISA in MPM cell lines; conditions: multiple MPM cell lines treated in vitro
Procedure: (§1) Cytokine analysis. CXCL10 ELISA (R&D Systems DIP100) and granzyme B ELISA (R&D systems DY008) were performed according to manufacturer's instructions on conditioned media collected from cell culture. Cytokine analysis of conditioned media after 3 days of explant (S1) culture (FIG. 9B) utilized the MSD U-PLEX Viral Combo 1 assay (Hu: K15343K-2), which was performed according to manufacturer's instructions.
Cell culture. MPM cell lines were cultured in RPMI-1640 (Thermo Fisher Scientific) supplemented with 10% FBS (Gemini Bio-products). H226, H28, MSTO-211H, H2452 and H2052 were purchased from ATCC. MS428 was provided by the Richards Lab. H2461 and H2591 were provided to Dr. Janne by the NIH (Pass et al., Ann. Thorac. Surg. 59:835-44 (1995)). JMN1B (Demetri et al., Blood 74:940-6 (1989)) and MS589 (Gordon et al., Am. J. Pathol. 166:1827-40 (2005)) were derived at BWH/DFCI and shared internally with permission. All experiments were performed before reaching 10 passages. Mycoplasma infection was regularly checked by PCR using the conditioned media derived from each cell line with primers as previously described (Kitajima et al., Cancer Discov. 9:34-45 (2019)).
Immunoblotting. Cells were lysed in RIPA buffer containing 1× protease inhibitors (Roche 11-836-145-001) and phosphatase inhibitors (50 mmol/L NaF and 100 mmol/L Na3VO4). […]

[3] = tested on: H226 MPM cells; experiment: NK cell migration assay towards H226 spheroids
Procedure: NK cell infiltration assay. Immune cell infiltration was assessed as previously described (Kitajima et al., Cancer Discov. 9:34-45 (2019); Mahadevan et al., Cancer Discov. 11:1952-1969 (2021)). Briefly, mesothelioma cancer cell spheroids (H2591, H2461, H226) were generated by seeding 5×10^5 cells in suspension in a ULA dish for 24 hours. […] Samples were then pelleted and resuspended in type I rat tail collagen (Corning) at a concentration of 2.5 mg/mL following the addition of 10×PBS with phenol red and pH adjustment using NaOH. pH 7.0-7.5 was confirmed using PANPEHA Whatman paper (Sigma-Aldrich). Cells and collagen were kept on ice to prevent polymerization. The spheroid-collagen suspension was then injected into the central gel region of the 3D DAX-1 microfluidic cell culture chip (AIM Biotech). Microfluidic devices were utilized as previously described (Aref et al., Lab Chip 18:3129-3143 (2018)), with a central region containing the cell-collagen mixture in a 3D microenvironment (3×10^4 cells H2591 and H2461, 2× 10^4 cells H226 in 10 μL), flanked by 2 media channels. After injection, collagen hydrogels containing cells were incubated for 40 minutes at 37° C. in humidity chambers, then hydrated with culture media, with labeled primary NK cells (ET ratio 2:1) added to one of the side channels. Primary NK cells were labeled with Cell Tracker Red (Thermo Fisher Scientific) following manufacturer's instructions. After 96 hours of incubation, viability staining of cancer cell spheroids and infiltrated immune cells was performed (20-minute incubation with 1 μg/mL solution of Propidium Iodide; Thermo Fisher Scientific). For the experiment with the CXCR3 neutralizing antibody (R&D MAB160), NK cells were pre-treated for 30 minutes prior to loading.
For quantification, images were captured on a Nikon Eclipse 80i fluorescence microscope equipped with Z-stack (Prior) and CoolSNAP CCD camera (Roper Scientific). Image capture and analysis was performed using NIS-Elements AR software package. Whole device images were achieved by stitching in multiple captures. Quantification of immune cell infiltration into the 3D tumor microenvironment was performed by measuring the total cell area of cell tracker dye in the entire gel region. For the experiment with the CXCR3 neutralizing antibody (R&D MAB160; FIG. 6B), staining was quantified in a square region in the center of the channel to focus on effects of CXCR3 ligands released by tumor cells. Percent dead cell quantification was performed as in PDOTS as described above.
Immune cell migration assays were performed as previously described (Kitajima et al., Cancer Discov. 9:34-45 (2019)). […]

[4] = tested on: granzyme B; experiment: Granzyme B ELISA, NK / MPM co-culture; conditions: only in co-culture with MPM cells expressing STING
Procedure: as §1

[5] = tested on: T-cells; experiment: Immune cell toxicity assays, T-cells
Procedure: Immune Cell Toxicity Assays. […] Following treatment, samples were stained with anti-CD45, anti-CD3, anti-CD4, anti-CD8, and anti-CD56 antibodies (Table 1), as well as Zombie Green live/dead (Biolegend 423111) and analyzed by flow cytometry as described above. Data were analyzed using FlowJo software version 10.5.3. As an orthogonal measure of viability, CellTiter-Glo was performed on primary T-cells and NK cells.
CellTiter-Glo luminescent cell viability assay. Cell viability was assessed using the CellTiter-Glo Luminescent Cell Viability assay (Promega, G7571) according to manufacturer's instructions. […] All conditions were tested in triplicate and plates were read on a Tecan Infinite Mplex Microplate Reader.

Nc1ncnc2c1ncn2[C@@H]1O[C@@H]2COP(=O)([S-])O[C@@H]3[C@H](O)[C@@H](COP([O-])(=S)O[C@H]2[C@H]1O)O[C@H]3n1cnc2c(N)ncnc21.[Na+].[Na+] (stereo partly shown) [ADU-S100]
migration of cNK cells [1]: increased migration
migration of cNK overexpressing CXCR3 [1]: decreased migration
STING pathway activation, CXCL10 secretion [2]: potent pathway activation
CAR-NK CXCR+ cell migration [3]: increased
CAR-NK control cell migration [3]: did not affect
migration of cNK cells [3]: increased migration
migration of cNK overexpressing CXCR3 [3]: decreased migration
granzyme release by NK cells [4]: enhanced
cytotoxicity to T-cells by flow cytometry ([5]; MPM tumor explants, increased from 24 to 72 hours): cytotoxic
cytotoxicity in T-cells purified from peripheral blood ([5]; with or without BCMA CAR): dose-dependent cytotoxicity
